Measured values reported in ChEMBL document CHEMBL5247634, “Design, synthesis and anticancer evaluation of selective 2,4-disubstituted pyrimidine CDK9 inhibitors” (Eur J Med Chem, 2022).
pIC50: −log10 of the molar value.

How the values were obtained:
[1] = target: Cyclin-dependent kinase 2 (Homo sapiens, UniProt P24941)
Description: Inhibition of CDK2 (unknown origin)

[2] = system: HCT-116; assay: Antiproliferative activity against human HCT-116 cells assessed as cell growth inhibition measured after 72 hrs by MTT assay; format: functional, cell-based; details: HCT-116, 72 h
[3] = system: A549; assay: Antiproliferative activity against human A549 cells assessed as cell growth inhibition measured after 72 hrs by MTT assay; format: functional, cell-based; details: A549, 72 h
[4] = system: L02; assay: Antiproliferative activity against human L02 cells assessed as cell growth inhibition measured after 72 hrs by MTT assay; format: functional, cell-based; details: L02, 72 h
[5] = system: A-431; assay: Antiproliferative activity against human A-431 cells assessed as cell growth inhibition measured after 72 hrs by MTT assay; format: functional, cell-based; details: A-431, 72 h
[6] = system: PANC-1; assay: Antiproliferative activity against human PANC-1 cells assessed as cell growth inhibition measured after 72 hrs by MTT assay; format: functional, cell-based; details: PANC-1, 72 h
[7] = system: NCI-H1975; assay: Antiproliferative activity against human NCI-H1975 cells assessed as cell growth inhibition measured after 72 hrs by MTT assay; format: functional, cell-based; details: NCI-H1975, 72 h
[8] = organism: Homo sapiens; assay: Selectivity index, ratio of IC50 for CDK2/cyclin A (unknown origin) to IC50 for CDK9/cyclin T1 (unknown origin)
[9] = target: CDK9/cyclin T1 (Homo sapiens, UniProt P50750); assay: Inhibition of CDK9/cyclin T1 (unknown origin) using as PDKtide substrate incubated for 1 hr in presence of ATP by ADP-glo luminescent assay; format: protein-complex assay
[10] = target: Cyclin-dependent kinase 2/cyclin A (Homo sapiens, UniProt P24941); assay: Inhibition of CDK2/cyclin A (unknown origin) incubated for 1 hr in presence of ATP by ADP-glo luminescent assay; format: protein-complex assay

Sequence of CDK9/cyclin T1 (O60563 whole entry): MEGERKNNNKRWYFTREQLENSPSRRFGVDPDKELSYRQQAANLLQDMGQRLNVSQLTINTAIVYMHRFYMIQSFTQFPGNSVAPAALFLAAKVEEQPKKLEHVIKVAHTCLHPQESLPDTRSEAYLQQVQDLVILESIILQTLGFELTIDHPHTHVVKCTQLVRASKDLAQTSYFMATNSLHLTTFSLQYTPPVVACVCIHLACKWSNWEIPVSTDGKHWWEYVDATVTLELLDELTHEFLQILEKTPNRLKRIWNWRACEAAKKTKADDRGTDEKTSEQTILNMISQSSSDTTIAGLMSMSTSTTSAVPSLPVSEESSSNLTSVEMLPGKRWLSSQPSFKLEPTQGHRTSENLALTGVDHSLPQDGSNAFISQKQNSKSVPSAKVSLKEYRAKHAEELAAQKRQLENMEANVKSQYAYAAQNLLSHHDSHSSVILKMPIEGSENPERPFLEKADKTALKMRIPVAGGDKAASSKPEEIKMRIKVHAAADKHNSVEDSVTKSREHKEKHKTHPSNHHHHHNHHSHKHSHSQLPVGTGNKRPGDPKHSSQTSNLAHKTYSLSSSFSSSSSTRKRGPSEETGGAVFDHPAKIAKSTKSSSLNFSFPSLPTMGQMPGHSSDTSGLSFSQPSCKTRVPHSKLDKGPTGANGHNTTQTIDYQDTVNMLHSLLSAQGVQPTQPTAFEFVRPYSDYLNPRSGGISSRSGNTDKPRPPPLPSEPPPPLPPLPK
Sequence of CDK9/cyclin T1 (P50750 whole entry): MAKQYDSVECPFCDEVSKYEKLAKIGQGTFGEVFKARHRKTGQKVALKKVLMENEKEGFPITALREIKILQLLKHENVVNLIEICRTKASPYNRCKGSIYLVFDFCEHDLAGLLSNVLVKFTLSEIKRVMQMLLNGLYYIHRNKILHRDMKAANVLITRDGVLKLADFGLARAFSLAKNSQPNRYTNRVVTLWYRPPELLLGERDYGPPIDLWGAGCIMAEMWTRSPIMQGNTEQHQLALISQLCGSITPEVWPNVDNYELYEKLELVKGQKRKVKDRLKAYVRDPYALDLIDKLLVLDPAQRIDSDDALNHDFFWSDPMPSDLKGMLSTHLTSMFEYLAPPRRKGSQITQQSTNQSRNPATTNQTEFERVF

**Q.** How did the pIC50 [1] turn out when COc1ccccc1-c1cc(Nc2cccc(CS(N)(=O)=O)c2)ncn1 was run?
**A.** Its pIC50 is less than 5.70.

**Q.** With COc1cc(F)ccc1-c1ccnc(Nc2ccc(C(=O)NCCN(C)C)cc2)n1 as the compound, how does the pIC50 [2] read?
**A.** Its pIC50 is 4.90.

**Q.** And the pIC50 [3]?
**A.** The pIC50 was 5.33.

**Q.** And the pIC50 [4]?
**A.** The pIC50 was 4.69.

**Q.** And the pIC50 [5]?
**A.** The pIC50 was 5.43.

**Q.** And the pIC50 [6]?
**A.** Its pIC50 is 5.34.

**Q.** What about the pIC50 [7] of the same compound?
**A.** Its pIC50 is 5.66.

**Q.** CC(C)N(CCNC(=O)c1ccc(Nc2nccc(-c3ccc(F)cc3OCc3ccccc3)n2)cc1)C(C)C was tested. Which pIC50 [2] did it give?
**A.** The pIC50 was 6.43.

**Q.** And the pIC50 [4]?
**A.** Its pIC50 is 5.68.

**Q.** What about the Selectivity Index [8] of the same compound?
**A.** The Selectivity Index was 15.3.

**Q.** And the pIC50 [5]?
**A.** Its pIC50 is 6.23.

**Q.** And the pIC50 [6]?
**A.** Its pIC50 is 6.25.

**Q.** What about the pIC50 [7] of the same compound?
**A.** The pIC50 was 6.07.

**Q.** What about the pIC50 [9] of the same compound?
**A.** Its pIC50 is 7.22.

**Q.** What about the pIC50 [10] of the same compound?
**A.** The pIC50 was 6.04.

**Q.** Which results are given for O=C(NCCCN1CCOCC1)c1ccc(Nc2nccc(-c3ccc(F)cc3OCc3ccccc3)n2)cc1?
**A.** pIC50 [2]: 5.56; pIC50 [3]: 5.39; pIC50 [4]: 4.84; pIC50 [5]: 5.60; pIC50 [6]: 5.70; pIC50 [7]: 5.57

**Q.** How did the pIC50 [2] turn out when COc1cc(F)ccc1-c1ncnc(Nc2cccc(C[S@](C)(=N)=O)c2)n1 [ATUVECICLIB] was run?
**A.** Its pIC50 is 6.59.

**Q.** And the pIC50 [4]?
**A.** Its pIC50 is 5.59.

**Q.** What about the pIC50 [5] of the same compound?
**A.** The pIC50 was 6.47.

**Q.** And the pIC50 [6]?
**A.** Its pIC50 is 6.96.

**Q.** What about the pIC50 [7] of the same compound?
**A.** The pIC50 was 6.14.

**Q.** How did the pIC50 [1] turn out when COc1cc(F)ccc1-c1ccnc(NC(=O)[C@H]2CCC[C@@H](NC(C)=O)C2)c1 was run?
**A.** Its pIC50 is 5.61.

**Q.** How did the pIC50 [2] turn out when O=C(NCCN1CCCCC1)c1ccc(Nc2nccc(-c3ccc(F)cc3OCc3ccccc3)n2)cc1 was run?
**A.** Its pIC50 is 5.90.

**Q.** And the pIC50 [3]?
**A.** The pIC50 was 5.07.

**Q.** And the pIC50 [4]?
**A.** The pIC50 was 5.52.

**Q.** What about the pIC50 [5] of the same compound?
**A.** Its pIC50 is 5.74.

**Q.** What about the pIC50 [6] of the same compound?
**A.** The pIC50 was 5.80.

**Q.** What about the pIC50 [7] of the same compound?
**A.** The pIC50 was 5.23.

**Q.** How did the pIC50 [2] turn out when O=C(NCCO)c1ccc(Nc2nccc(-c3ccc(F)cc3OCc3ccccc3)n2)cc1 was run?
**A.** The pIC50 was 4.82.

**Q.** And the pIC50 [3]?
**A.** Its pIC50 is 4.75.

**Q.** What about the pIC50 [4] of the same compound?
**A.** Its pIC50 is 4.63.

**Q.** And the pIC50 [5]?
**A.** The pIC50 was 5.20.

**Q.** What about the pIC50 [6] of the same compound?
**A.** Its pIC50 is 5.14.

**Q.** And the pIC50 [7]?
**A.** Its pIC50 is 4.72.

**Q.** How did the pIC50 [2] turn out when CCN(CC)CCNC(=O)c1ccc(Nc2nccc(-c3ccc(F)cc3OCc3ccccc3)n2)cc1 was run?
**A.** The pIC50 was 6.89.

**Q.** What about the pIC50 [4] of the same compound?
**A.** The pIC50 was 5.43.

**Q.** And the Selectivity Index [8]?
**A.** The Selectivity Index was 29.8.

**Q.** And the pIC50 [5]?
**A.** The pIC50 was 5.88.

**Q.** And the pIC50 [6]?
**A.** The pIC50 was 5.97.

**Q.** And the pIC50 [7]?
**A.** Its pIC50 is 5.92.

**Q.** And the pIC50 [9]?
**A.** Its pIC50 is 7.57.

**Q.** What about the pIC50 [10] of the same compound?
**A.** The pIC50 was 6.10.
